Measured values as given in US9155774B2, “Scaffold-kinase interaction blockades and uses thereof in treating cancer” (THE BOARD OF TRUSTEES OF THE LELAND STANFORD JUNIOR …, priority 2011, dated 2015).
Entries after “also recorded” stand apart in the source; their conditions may differ.

What was measured:
[1] = test system: H-RAS^G12V/IκBαM organotypic human tissue; test: Organotypic human tissue model of RAS-driven neoplastic invasion; type: cell-based
Experimental: (§1) Retroviral Transduction. […] Alternatively transformation was achieved through combined infection with an LTR-driven retrovirus expressing oncogenic ER:H-RAS and a separate LTR-driven retrovirus expressing cyclin-dependent kinase 4 (CDK4). Polybrene was added to a final concentration of 5 ug/mL to cell media during infection. Infections were performed at 37° C. with low-speed centrifugation for 1 hour. Expression of these viral constructs was verified in vitro. […] As a control for a RAS-IκBα bicistronic virus (IIR), we also infected a separate pool of keratinocytes with a LacZ control virus. For dual ER:H-RAS and CDK4 infected cells, forty-eight hours after infection cultures were daily treated with either […] 40 hydroxytamoxifen or an equal volume of ethanol (vehicle).
(§2) Human Tissue Model System. […] Pieces with less hair follicles are preferable. […] Subsequently, the epidermis is peeled off. […] Tissue was grown for five to ten days total. For immunofluorescence analysis, tissue was placed in OCT.
(§3) Immunofluorescence and Invasion index. […] Tissue was counterstained with Hoescht to visualize cell nuclei.
Hum Gene Ther 8, 1659-1665 (1997)).

[2] = test system: normal human organotypic tissue expressing LacZ
Source text: (§5) Human Tissue Model System. Dermis can be ordered from National Disease Research Interchange (NDRI) and New York Firefighter Skin Bank. Tissue is inspected for overall thickness as well as continuity across the spectrum. Pieces with less hair follicles are preferable. This tissue is cultures in a mixture of antibiotics and antimyotics for a period of 10-14 days. Subsequently, the epidermis is peeled off. The devitalized dermis is then ready to be repopulated with 2-4×10^5 neonatal human fibroblasts by low speed centrifugation for 1 hour. Tissue is raised to the air-liquid interface and seeded with 0.5-1×10^6 genetically modified human keratinocytes to stimulate differentiation and stratification (Ridky, T. W., et al. Invasive three-dimensional organotypic neoplasia from multiple normal human epithelia. Nat Med 16, 1450-1456 (2010); PrunieRAS, M., et al. Methods for cultivation of keratinocytes with an air-liquid interface. J Invest Dermatol 81, 28-33 (1983)). Tissue was treated with drug/peptide as indicated by application directly into culture media daily. Tissue was grown for five to ten days total. For immunofluorescence analysis, tissue was placed in OCT. For histological analysis, tissue was fixed in 10% formalin (Sigma-Aldrich) and embedded in paraffin.
(§6) Immunofluorescence and Invasion index. OCT embedded tissue samples were cut into 7 um sections then fixed and permeabilized by incubation in ice-cold methanol or acetone for 10 minutes at −20° C. followed by blocking in 10% horse serum in PBS for 1 hour. Tissue sections were then incubated with primary antibodies, followed by Alexafluor-488 conjugated or Alexafluor-555 conjugated, goat anti-mouse or goat anti-rabbit secondary antibodies (Molecular Probes). The following antibodies were used: rabbit anti-keratin-5 (1:4000, Covance, PRB-160P), mouse anti-collagen VII (1:200, Millipore, MAB2500), anti-mouse Keratin 10 (1:200, Neomarkers, MS611P), anti-mouse Transglutaminase (1:100, Biomedical Technology, BT-621), anti-rabbit Loricrin (1:200, Covance, PRB-145P), and anti-rabbit Ki67 (1:100, Neomarkers, SP6). Tissue was counterstained with Hoescht to visualize cell nuclei. Microscopy was performed on an Olympus FV1000 scanning laser confocal microscope. For each sample, 30 sequential Z-sections were taken in 3 channels (DAPI—405/450 nm excitation/emission, FITC-488/512 ex/em and TRITC-540/570 ex/em) allowing for subsequent three-dimensional reconstruction analysis. […] Relative invasion index was quantified as number of keratin-positive epithelial cells below the collagen-positive basement membrane zone (BMZ) measured 10 times across 3 independent 20× fields of view. Ki67 quantification was quantified as number of Ki67-positive epithelial cells measured 10 times across 3 independent 20× fields of view. […]

[3] = test system: normal human organotypic tissue expressing LacZ; test: Normal organotypic human tissue homeostasis; conditions: drug daily, same concentrations as in neoplastic tissue (UO126 5 μM)
Source text: as §5, §6

[4] = test system: PLX-4032 sensitive BRAFV600E melanoma cell lines (SK-MeI-28, A375, SK-MeI-5); test: Proliferation of PLX-4032 sensitive melanoma lines with peptide; type: cell-based, human; conditions: increasing doses of R8-myc-tagged WW peptide
Experimental: (A) Proliferation of PLX-4032 sensitive BRAFV600E melanoma cell lines (P1, SK-MeI-28; P2, A375; and P3, SK-MeI-5) at increasing doses of R8-myc-tagged WW peptide. (B) Proliferation assays of PLX-4032 resistant lines (R1, SK-MeI-28; R2, A375; and R3, SK-MeI-5) treated with 5 μM R8-myc-tagged SCR peptide and DMSO (control), 5 μM SCR peptide and 5 μM PLX-4032 (PLX-4032), or 5 μM R8-myc-tagged WW peptide and DMSO (5 μM WW).
Cell Viability Assay. Genetically modified adherent cancer cell lines were seeded in equivalent, low density cultures in duplicate to 24-well plates. 24 hours post-seeding, media was removed and replaced with 500 uL of a 5:1 mixture of cell media and cell titre blue reagent (Promega). Cultures were incubated with this mixture for 2 hours at 37° C. in the dark. Fluorescence ([…]) for 100 uL in triplicates of each sample was recorded. Incubation with cell titre blue reagent and fluorescent readings were repeated every two days for a total of twelve days. Values plotted correspond to readings taken while control samples are still growing exponentially.

[5] = test system: ERK; test: Protein expression analysis of phosphorylated and total ERK (immunoblot / immunohistochemistry); type: cell-based, human; conditions: Ras-driven organotypic neoplasia, peptide 10 uM daily
Experimental: Protein Expression Analysis. Cells were lysed in 20 mM Tris (pH 7.5), 150 mM NaCl, 1 mM EDTA, and 1% NP40 supplemented with complete mini EDTA-free protease inhibitors (Roche) and phosphatase inhibitor cocktails I and II (Sigma-Aldrich). 5-20 ug of lysate were loaded per lane, subjected to 10-12% SDS-PAGE or 16% Tricine electrophoresus (Invitrogen NuPage), and subsequently transfer to PVDF membranes via semidry transfer. Primary antibody incubations were performed overnight at 4° C. Secondary antibody incubations were for 1 hour at room temperature. The following antibodies were used: rabbit anti-ERK1/2 (1:1000, Cell Signaling, 9201), rabbit anti-phosphorylated ERK1/2 (1:1000, Thr202/Tyr204, Cell Signaling, 9201), mouse anti-IQGAP1 (1:400, Upstate, 05-504), rabbit anti-RAS (1:500, Santa Cruz, sc-520), rabbit anti-IκBa (1:500, Cell Signaling, 9242), Rabbit anti-β-Galactosidase (1:1000, Cappel, 55976), rabbit anti myc (1:500, Abcam, ab9106), mouse anti-actin (1:10,000, Sigma, 5316), donkey anti-rabbit IgG conjugated to horseradish peroxidase (HRP)(1:20,000, Amersham Biosciences), and donkey anti-mouse IgG conjugated to horseradish peroxidase (HRP)(1:20,000, Amersham Biosciences).

[6] = test system: SK-MeI-28 melanoma xenograft tumors; test: Systemic delivery of WW peptide in vivo by osmotic pump; conditions: subcutaneous osmotic pump, 19 mg/kg/day for 14 days
Experimental: (A) Established xenograft tumors derived from BRAFV600E mutant SK-MeI-28 melanoma cancer cells were subcutaneously implanted with osmotic pumps (Alzet model 2002) (indicated by black arrows) which released 19 mg/kg/day of R8-myc-tagged Scrambled or WW peptide for 14 days (indicated by hash bars) with tumor growth quantified by mean average radiance (n=3 mice per group). […] (D) Representative data of tumor growth as quantified by tumor volume±SEM from d28 and d43.
(§4) Systemic delivery of WW peptide in vivo. 0.5×10^6 luciferase-expressing SK-MeI-28 were injected into the subcutaneous space of hairless immunodeficient 6-8 week old SCID mice (SHO stock, Charles Rovers). Mouse xenografts were allowed to grow untreated for 1 week. Subsequently, tumors were measured and randomized two groups of similar tumor size. Each group was subcutaneously implanted with osmotic pumps (Alzet, model 2002) releasing 0.5 uL of R8-myc-tagged scrambled or WW peptide per hour for 14 days.
as §4, with “To test the efficacy of systemic” for “Systemic”, “vivo,” for “vivo.”, “of” for “of R8-myc-tagged”

[7] = test system: PLX-4032 resistant BRAFV600E melanoma lines (SK-MeI-28, A375, SK-MeI-5); test: Proliferation of PLX-4032 resistant melanoma lines; type: cell-based, human; conditions: 5 μM R8-myc-tagged WW peptide and DMSO
[8] = test system: Ras-driven organotypic human epidermal neoplasia; test: Ras-driven organotypic human epidermal neoplasia (ER:H-RAS/CDK4, 4OHT) invasion; type: cell-based; conditions: peptide 10 uM daily in media vs scrambled control peptide
Experimental: as §1, §2, §3
Exogenous delivery of the WW domain to human tissue. […] Briefly stromal primary human fibroblasts were seeded onto devitalized human dermis and subsequently elevated to a sterilized annular dermal support (ADS) tissue culture insert device (Ridky, supra). […]

[9] = test system: IQGAP1-Erk1/2 interaction; test: Immunoprecipitation of endogenous IQGAP1 protein and associated Erk; type: cell-based, human; conditions: 10 μM peptide daily for six days, SK-MeI-28 cells
Experimental: (A) Immunoprecipitation of endogenous IQGAP1 protein and associated Erk from primary human cells (normal) or BRAFV600E mutant SK-MeI-28 melanoma cells (cancer) following daily treatment with 10 μM R8-myc-tagged SCR or WW peptide for six days. (B) Relative Erk levels as a function of immunoprecipitated IQGAP1 as in (d). n=3, ±SD.
Immunoprecipitation of endogenous IQGAP1 protein and associated Erk. Cells were cross-linked with 1 mL of 20 mM DSP (Thermo Scientific) for 1 hour at 4° C. and the reaction was stopped with washes in 50 mM Tris. Cells were lysed in 20 mM Tris, 150 mM NaCl, 0.2% NP40, 10% Glycerol with 0.5 mM dTT and protease/phosphatase inhibitors added directly before use (buffer 1) for 1 hour at 4° C., but not pelleted. 1 mg lysate in 500 uL was combined with 5 ug of mouse anti-IQGAP1 antibody (Millipore 05-504) in buffer 1 and rocked overnight at 4° C. 30 uL of protein G sepharose 4 fast flow (GE Healthcare) were washed in buffer 1 and combined with lysate for 1 hour at 4° C. Supernatent was removed to check for immunodepletion. Beads were washed 3 times in 20 mM Tris, 150 mM NaCl, 1% Triton X-100 with protease/phosphatase inhibitors added directly before use (buffer 2). Immunoprecipitate was eluted from beads in 200 uL of 4×LDS sample buffer in buffer 1 plus 5% BME. […]

[10] = test system: IQGAP1; test: qRT-PCR validation of IQGAP1 knockdown; type: cell-based, human; conditions: two, four and six days post-nucleofection
Source text: siRNA-mediated knockdown. For each ERK/MAPK scaffold, siRNA oligos were designed and synthesized by Dharmacon. Subsequently, 1×10^6 early-passage neonatal keratinocytes were electroporated with 2 nMol of each siRNA oligo or 1 nMol each of two siRNA oligos using Amaxa nucleofection reagents and according to the manufacturer's protocol. A nonfunctional siRNA served as a negative control and ERK1/2 siRNA served as positive controls. The following siRNA oligos were used for this study (sense/antisense):
shRNA-mediated knockdown. The vectors for pGIPZ shRNA targeting IQGAP1 were designed and purchased through Open Biosystems catalog number V2LHS-86779 for shIQGAP1.E, V2LHS-86781 for shIQGAP1.F, and V2LHS-259635 for shIQGAP1.G. Cells were transduced as above with 1000× puromycin (1 mg/mL) selection applied daily. Transduction of cells was visualized under a fluorescent microscope
qRT-PCR Expression Analysis. At indicated time points, RNA was harvested from cells via treatment with TRIZOL by the standard Invitrogen protocol. Relative mRNA expression was determined by qRT-PCR analysis using a Stratagene Mx3000P thermocycler and Brilliant II SYBR green QRT-PCR 1-step master mix reagents. Primer concentration was 200 nM with 100 ng RNA. Samples were run in triplicate and normalized to levels of GAPDH mRNA for each reaction. The following primers were used for this study: […]

[11] = drug daily in culture media: UO126 5 μM, SB0203580 2.6 μM, PD98059 18.7 μM, LY294002 5 μM
[12] = siRNA-nucleofected keratinocytes

For C[S+]([O-])c1ccc(-c2nc(-c3ccncc3)c(-c3ccc(F)cc3)[nH]2)cc1 (centres unmarked) [SB203580], the neoplastic invasion [1, 11] was “did not completely block invasion; also recorded: did not see effects”.

“siIQGAP1.A: siRNA to coding sequence of IQGAP1, SEQ ID NO: 11/12 (chain 1 GAACGUGGCUUAUGAGUACUU; chain 2 GUACUCAUAAGCCACGUUCUU; chemistry not given here)” was tested, and the normal tissue phenotype [2] was “phenotypically normal tissue” and the neoplastic invasion [1, 12] was “no invasion”.

N#CC(=C(/N)Sc1ccccc1N)/C(C#N)=C(/N)Sc1ccccc1N [UO126] was tested, and the normal tissue homeostasis [3] was “without affecting normal tissue homeostasis”.

In the case of “WW peptide: 32 amino acid IQGAP1 WW domain peptide, myc-tagged, made cell penetrating by adding eight arginine residues (RRRRRRRREQKLISEEDLDNNSKWVKHWVKGGYYYYHNLETQEGGWDEPP)”, the “proliferation of BRAF mutant melanoma cells” value [4] is reported as “inhibited proliferation of BRAF mutant melanoma cells in a dose-dependent manner”, the pErk1/2 levels [5] is reported as “diminished pErk1/2 levels” and the “toxic effects to animals” value [6] is reported as “without adverse toxic effects to animals”. For the same compound, the “weight gain of mice” value [6] was “no negative effects on mouse growth”, the “tumorigenesis / tumor growth” value ([6]; 19 mg/kg/day) was “diminishes tumorigenesis; also recorded: can inhibit tumorigenesis” and the “growth of PLX-4032-resistant melanoma cells” value [7] was “inhibited growth of PLX-4032-resistant melanoma cells similarly to PLX-4032-sensitive parental cells; also recorded: bypasses resistance to B-Raf inhibitors”. For the same compound, the BMZ degradation [8] was “abrogated BMZ degradation”, the neoplastic invasion [8] was “abolished neoplastic invasion; also recorded: inhibits neoplastic invasion” and the “total Erk1/2 bound to endogenous IQGAP1” value [9] was “significantly decreased”.

With COc1cccc(-c2cc(=O)c3ccccc3o2)c1N [PD098059] the neoplastic invasion [1, 11] was “did not have an abrogating effect on neoplastic invasion; also recorded: did not block invasion”.

For “siIQGAP1.C: siRNA to 3′ UTR of IQGAP1, SEQ ID NO: 15/16 (chain 1 CAGCCAUCAUGACAUUUACCAUGAA; chain 2 UUCAUGGUAAAUGUCAUGAUGGCUG; chemistry not given here)”, the “durability of IQGAP1 knockdown” value [10] was “more durable knockdown”, the normal tissue phenotype [2] was “phenotypically normal tissue” and the neoplastic invasion [1, 12] was “no invasion”.

In the case of “siIQGAP1.B: siRNA to 3′ UTR of IQGAP1, SEQ ID NO: 13/14 (chain 1 CCUCUCGCUCUGAUGGGACAUUUGU; chain 2 ACAAAUGUCCCAUCAGAGCGAGAGG; chemistry not given here)”, the “durability of IQGAP1 knockdown” value [10] is reported as “more durable knockdown”, the normal tissue phenotype [2] is reported as “phenotypically normal tissue” and the neoplastic invasion [1, 12] is reported as “no invasion”.
